Legend:
Assay type in all cases: cell-based
AsPC-1 cells = assay: CellTiter-Glo cell viability, AsPC-1; settings: 72 h
Procedure: (§1) The cell viability of 50 cancer cell lines was studied after treatment with Compound 121. Inhibition concentration values at 50% (IC50) were determined using CellTiter-Glo luminescent cell viability assay after incubation with different compound concentrations. GI50 values were determined according to the examples described above. Each cell line was treated with Compound 121, a standard chemotherapy drug as a reference control, and culture medium as a vehicle control.
(§2) All cells were cultured in media supplemented with 10-15% FBS at 37° C. in the presence of 5% CO2 and at 95% humidity. The culture medium was purchased from GIBCO or Sigma, USA. Cisplatin was chosen as the reference control and purchased from Hospira Australia Pty Ltd. The cell lines studied are presented in Table 5.
(§3) Cells were harvested during a logarithmic growth period and cell number count was determined using Count-star. Cell concentrations were adjusted to 4.44×10^4 cells/mL with respective culture medium. 90 μL of cell suspensions were added to two 96-well plates (plates A and B) with a final cell density of 4×10^3 cells/well.
(§4) 10 μL of culture medium was added to each well of plate A for TO reading. The plate was allowed to equilibrate at room temperature for approximately 30 min. 50 μL of CellTiter-Glo was added to each well and the contents were mixed for 5 min on an orbital shaker to induce cell lysis. The plate was allowed to incubate at room temperature for 20 min to stabilize luminescent signal.
(§5) 10 μM Compound 121 in media was serially diluted 3.16-fold to achieve 9 dose levels. Similarly, 100 μM reference control in media was serially diluted 3.16-fold to prepare reference control solutions. 10 μL drug solution and 10 μL of reference control was dispensed into each well in plate B.
(§6) Test plate B was incubated for 72 h in a humidified incubator at 37° C. in the presence of 5% CO2 and then subjected to CTG assay. The plate was allowed to equilibrate at room temperature for about 30 min. 50 μL of CellTiter-Glo was added to each well and the contents were mixed for 5 min on an orbital shaker to induce cell lysis. The plate was allowed to incubate at room temperature for 20 min to stabilize luminescent signal.
(§7) IC50 and GI50 values for each of the 50 cell lines are presented in Table 6 and were calculated based on the dose-response curves depicted in FIGS. 1-50. The dose-response curves were fitted using nonlinear regression model with a sigmoidal dose response. The formula for calculating survival rate was calculated by the formula:
(§8) Survival rate (%)=(LumTest article−LumMedium control)/(LumNone treated−LumMedium control)×100.

NCI-H1155 cells = assay: CellTiter-Glo cell viability, NCI-H1155; settings: 72 h
Procedure: as §1, §2, §3, §4, §5, §6, §7, §8

HT-29 cells = assay: CellTiter-Glo cell viability, HT-29; settings: 72 h
Procedure: as §1, §2, §3, §4, §5, §6, §7, §8

BT474 cells = assay: CellTiter-Glo cell viability, BT474; settings: 72 h
Procedure: as §1, §2, §3, §4, §5, §6, §7, §8

OVCAR-3 cells = assay: CellTiter-Glo cell viability, OVCAR-3; settings: 72 h
Procedure: as §1, §2, §3, §4, §5, §6, §7, §8

SK-N-FI cells = assay: CellTiter-Glo cell viability, SK-N-FI; settings: 72 h
Procedure: as §1, §2, §3, §4, §5, §6, §7, §8

MDA-MB-468 cells = assay: CellTiter-Glo cell viability, MDA-MB-468; settings: 72 h
Procedure: as §1, §2, §3, §4, §5, §6, §7, §8

A-673 cells = assay: CellTiter-Glo cell viability, A-673; settings: 72 h
Procedure: as §1, §2, §3, §4, §5, §6, §7, §8

SNU-5 cells = assay: CellTiter-Glo cell viability, SNU-5; settings: SN1J-5 cells, 72 h
Procedure: as §1, §2, §3, §4, §5, §6, §7, §8

786-O cells = assay: CellTiter-Glo cell viability, 786-O; settings: 72 h
Procedure: as §1, §2, §3, §4, §5, §6, §7, §8

KP4 cells = assay: CellTiter-Glo cell viability, KP4; settings: 72 h
Procedure: as §1, §2, §3, §4, §5, §6, §7, §8

Raji cells = assay: CellTiter-Glo cell viability, Raji; settings: 72 h
Procedure: as §1, §2, §3, §4, §5, §6, §7, §8

Molt-4 cells = assay: CellTiter-Glo cell viability, Molt-4; settings: 72 h
Procedure: as §1, §2, §3, §4, §5, §6, §7, §8

KYSE-150 cells = assay: CellTiter-Glo cell viability, KYSE-150; settings: 72 h
Procedure: as §1, §2, §3, §4, §5, §6, §7, §8

HUH-7 cells = assay: CellTiter-Glo cell viability, HUH-7; settings: 72 h
Procedure: as §1, §2, §3, §4, §5, §6, §7, §8

HuT 78 cells = assay: CellTiter-Glo cell viability, HuT 78; settings: 72 h
Procedure: as §1, §2, §3, §4, §5, §6, §7, §8

MES-SA/DX5 cells = assay: CellTiter-Glo cell viability, MES-SA/DX5; settings: 72 h
Procedure: as §1, §2, §3, §4, §5, §6, §7, §8

HuCCT1 cells = assay: CellTiter-Glo cell viability, HuCCT1; settings: 72 h
Procedure: as §1, §2, §3, §4, §5, §6, §7, §8

KARPAS-299 cells = assay: CellTiter-Glo cell viability, KARPAS-299; settings: 72 h
Procedure: as §1, §2, §3, §4, §5, §6, §7, §8

143B cells = assay: CellTiter-Glo cell viability, 143B; settings: 72 h
Procedure: as §1, §2, §3, §4, §5, §6, §7, §8

[1] = top conc. 10 μM Compound 121, 100 μM cisplatin

## N.N.[Cl][Pt][Cl] [Cisplatin, reference compound]
AsPC-1 cells; read-out: Absolute GI50
  GI50: 2730 nM
AsPC-1 cells; read-out: Absolute IC50
  IC50: 3310 nM
AsPC-1 cells; [1]
  % inhibition at top conc.: 72.39%
NCI-H1155 cells; read-out: Absolute GI50
  GI50: 1520 nM
NCI-H1155 cells; read-out: Absolute IC50
  IC50: 1750 nM
NCI-H1155 cells; [1]
  % inhibition at top conc.: 90.61%
HT-29 cells; read-out: Absolute GI50
  GI50: 8780 nM
HT-29 cells; read-out: Absolute IC50
  IC50: 9800 nM
HT-29 cells; [1]
  % inhibition at top conc.: 89.05%
BT474 cells; read-out: Absolute GI50
  GI50: 39300 nM
BT474 cells; read-out: Absolute IC50
  IC50: 45100 nM
BT474 cells; [1]
  % inhibition at top conc.: 59.96%
OVCAR-3 cells; read-out: Absolute GI50
  GI50: 3810 nM
OVCAR-3 cells; read-out: Absolute IC50
  IC50: 4290 nM
OVCAR-3 cells; [1]
  % inhibition at top conc.: 91.14%
SK-N-FI cells; read-out: Absolute GI50
  GI50: 5800 nM
SK-N-FI cells; read-out: Absolute IC50
  IC50: 9260 nM
SK-N-FI cells; [1]
  % inhibition at top conc.: 99.77%
MDA-MB-468 cells; read-out: Absolute GI50
  GI50: 650 nM
MDA-MB-468 cells; read-out: Absolute IC50
  IC50: 930 nM
MDA-MB-468 cells; [1]
  % inhibition at top conc.: 99.91%
A-673 cells; read-out: Absolute GI50
  GI50: 400 nM
A-673 cells; read-out: Absolute IC50
  IC50: 1120 nM
A-673 cells; [1]
  % inhibition at top conc.: 99.59%
SNU-5 cells; read-out: Absolute GI50
  GI50: 2150 nM
SNU-5 cells; read-out: Absolute IC50
  IC50: 2500 nM
SNU-5 cells; [1]
  % inhibition at top conc.: 97.80%
786-O cells; read-out: Absolute GI50
  GI50: 1600 nM
786-O cells; read-out: Absolute IC50
  IC50: 1770 nM
786-O cells; [1]
  % inhibition at top conc.: 98.46%
KP4 cells; read-out: Absolute GI50
  GI50: 6870 nM
KP4 cells; read-out: Absolute IC50
  IC50: 8800 nM
KP4 cells; [1]
  % inhibition at top conc.: 98.30%
Raji cells; read-out: Absolute GI50
  GI50: 1740 nM
Raji cells; read-out: Absolute IC50
  IC50: 1970 nM
Raji cells; [1]
  % inhibition at top conc.: 94.98%
Molt-4 cells; read-out: Absolute GI50
  GI50: 610 nM
Molt-4 cells; read-out: Absolute IC50
  IC50: 710 nM
Molt-4 cells; [1]
  % inhibition at top conc.: 99.96%
KYSE-150 cells; read-out: Absolute GI50
  GI50: 6260 nM
KYSE-150 cells; read-out: Absolute IC50
  IC50: 8140 nM
KYSE-150 cells; [1]
  % inhibition at top conc.: 91.28%
HUH-7 cells; read-out: Absolute GI50
  GI50: 2610 nM
HUH-7 cells; read-out: Absolute IC50
  IC50: 3540 nM
HUH-7 cells; [1]
  % inhibition at top conc.: 93.92%
HuT 78 cells; read-out: Absolute GI50
  GI50: 500 nM
HuT 78 cells; read-out: Absolute IC50
  IC50: 660 nM
HuT 78 cells; [1]
  % inhibition at top conc.: 98.27%
MES-SA/DX5 cells; read-out: Absolute GI50
  GI50: 1960 nM
MES-SA/DX5 cells; read-out: Absolute IC50
  IC50: 2210 nM
MES-SA/DX5 cells; [1]
  % inhibition at top conc.: 99.94%
HuCCT1 cells; read-out: Absolute GI50
  GI50: 6590 nM
HuCCT1 cells; read-out: Absolute IC50
  IC50: 8440 nM
HuCCT1 cells; [1]
  % inhibition at top conc.: 90.42%
KARPAS-299 cells; read-out: Absolute GI50
  GI50: 1490 nM
KARPAS-299 cells; read-out: Absolute IC50
  IC50: 1630 nM
KARPAS-299 cells; [1]
  % inhibition at top conc.: 99.99%
143B cells; read-out: Absolute GI50
  GI50: 1020 nM
143B cells; read-out: Absolute IC50
  IC50: 1080 nM
143B cells; [1]
  % inhibition at top conc.: 99.94%

Source: patent US20210196724A1, “BIARYL COMPOSITIONS AND METHODS FOR MODULATING A KINASE CASCADE” (Athenex, Inc., priority 2016, published 2021)
